# Tested on: PMN
# Assay: S100A8/A9 release by PMN measured by ELISA
# Type: cell-based, mouse
# Details: PMN treated with NE with or without ICI-118,551
# Procedure: PMN or PMN-MDSC were isolated from spleen of tumor-free mice or LLC tumor-bearing mice, respectively. A total of 5×10^5 LLC cells were injected into the right flank of mice, and spleens were harvested when tumors reached 200 mm^2. Spleens were mechanically dissociated. Red blood cells were lysed with ACK buffer cells. Splenocytes were stained with mouse biotin-conjugated Ly6G antibody (Miltenyi Biotec) followed by biotin microbeads. Ly6G+ cells were purified by magnetic separation with MACS column for magnetic cell isolation, according to the manufacturer's instructions (Miltenyi Biotec).
# One hundred microliters of mouse peripheral blood was collected from facial vein. NE was measured by a mouse NE ELISA Kit (Novus Biologicals). S100A8/A9 was measured by Mouse S100A8/S100A9 Heterodimer DuoSet ELISA (R&D Systems). S100A8/A9 concentrations in human serum samples were determined by using a double-sandwich ELISA system as previously described (64), which is different from commercial ELISA kits. Human NE was measured using an ELISA kit (Abnova).
structure (smiles),measurement,value
"Cc1ccc(OCC(O)C(C)NC(C)C)c2c1CCC2 (stereo not shown) [ICI-118,551]",NE-mediated secretion of S100A8/A9 by PMN,abrogated the NE-mediated secretion of S100A8/A9 by PMN
